# Measurements as given in a melting point compilation (Tetko et al.).
row,SMILES,melting point
1,CC(C)(C)OC(=O)NC1CCCN(Cc2ccccc2)C1 (configuration not stated),118 to 120 °C
2,OCc1ccc(O)c(F)c1,81 to 83 °C
3,Nc1ccc(-c2nc3ccccc3s2)cc1N,165 to 169 °C
4,c1n[nH]c2cc3c(cc12)OCO3,199 to 201 °C
5,CC(=O)N(c1nc(CCl)cs1)c1ccccc1F,150 to 155 °C
6,c1ccc(Nc2ccccn2)cc1,78 to 82 °C
7,CCCCCNC1=NCC(c2ccccc2)S1 (configuration not stated),66 to 68 °C
8,CC(C)(C)CC(=O)Nc1ccc(CC(=O)O)cc1,179 to 181 °C
9,Nc1c([N+](=O)[O-])cc(F)c(F)c1Br,104 to 106 °C
10,COc1ccc(C2C(CO)CC(=O)N2C)cc1 (configuration not stated),82 to 84 °C
11,COc1ccc(OCc2cc(C)on2)c(C(=O)O)c1,114 to 116 °C
12,Brc1cccc(-c2nnco2)c1,74 to 76 °C
13,COc1ccc(-n2cc(O)c(C(=O)O)n2)cc1,234 to 236 °C
14,NC(=O)c1csc(Br)c1,142 to 144 °C
15,O=C(O)CCc1n[nH]c(S)nc1=O,162 to 164 °C
16,Clc1cc2c(Cl)ncnc2[nH]1,239 to 241 °C
17,O=C1CC2(CCCCC2)CC(=O)O1,210 to 214 °C
18,N#CCCn1c(S)nc2ccccc21,154 to 158 °C
19,Clc1ccc2oc(C3CCNCC3)nc2c1,86 to 88 °C
20,O=C1CNC(=O)N1c1cccc([N+](=O)[O-])c1,164 to 166 °C
21,CCC(C)n1c(SCC(=O)O)nnc1-c1ccccc1 (configuration not stated),155 to 157 °C
22,COC(=O)c1ccc(CC#N)cc1,55 to 58 °C
23,O=C(O)CONS(=O)(=O)c1ccc(F)cc1,168 to 170 °C
24,COc1ccc(Br)cc1NCc1cccnc1,66 to 68 °C

row,SMILES,melting point
1,CC(C)(C)OC(=O)N1CC(CC(=O)O)C1,109 to 111 °C
2,O=C(c1cn[nH]c1)N1CCN(c2ccccn2)CC1,194 to 196 °C
3,O=[N+]([O-])c1ccc(-c2ncon2)cc1,166 to 168 °C
4,Sc1nnc(-c2ccncc2)n1Cc1ccccc1,195 to 197 °C
5,NC1CCc2c(O)cccc21 (configuration not stated),167 to 169 °C
6,Cc1ccc(F)c(-n2nnnc2CCl)c1,51 to 53 °C
7,O=C(c1ccc(F)cc1)c1ccccn1,83 to 85 °C
8,Cc1nc(-c2ccc(S(=O)(=O)Cl)cc2)co1,84 to 86 °C
9,NCC(=O)Nc1ccccc1[N+](=O)[O-],81 to 83 °C
10,O=C(O)CN(Cc1ccco1)c1cccc(Cl)c1,115 to 117 °C
11,Cc1cc(-c2ccccc2)nc(S)n1,208 to 210 °C
12,O=C(O)c1ccc(=O)n(-c2ccccc2)n1,208 to 210 °C
13,CC(C)c1noc2nc(-c3cccnc3)cc(C(=O)O)c12,279 to 281 °C
14,Nc1nnc2n1CCCC2,270 to 272 °C
15,O=c1[nH]nnc2sc3c(c12)CCCC3,185 to 187 °C
16,CC(C)c1nc(C(=O)O)cs1,56 to 58 °C
17,CS(=O)(=O)Nc1cccc(OCCN)c1,134 to 136 °C
18,Cc1c(C(=O)O)nnn1-c1cccc(Br)c1,184 to 186 °C
19,FC(F)c1nnc2ccc(Cl)nn12,101 to 103 °C
20,CC(C)c1cnc(S)n1C1CC1,175 to 177 °C
21,CC1=NNC(=O)C1CCN (configuration not stated),229 to 231 °C
22,NC(=O)c1c(NC(=O)CCC(=O)O)sc2c1CCC2,231 to 233 °C
23,Cc1cc(Br)ccc1N1CCCS1(=O)=O,77 to 79 °C
24,O=C1C(=O)N(Cc2ccccc2)c2ccccc21,92 to 94 °C

row,SMILES,melting point
1,N#Cc1cccnc1N1CCC(C(N)=O)CC1,177 to 179 °C
2,NC(=S)c1ccccc1O,118 to 120 °C
3,Clc1nc(-c2ccccc2)c2ccccc2n1,111 to 113 °C
4,N#Cc1ccc(N2CCCC2=O)cc1,106 to 108 °C
5,CCc1c(C(C)=O)oc2ccccc12,33 to 35 °C
6,O=C(O)CN1C(=O)COc2ccc([N+](=O)[O-])cc21,200 to 202 °C
7,CCC(C)C1NC(C(=O)O)CS1 (configuration not stated),177 to 179 °C
8,CC(C)NC(=O)Nc1ccccc1N,317 to 319 °C
9,CNC(=O)CC1CCNCC1,105 to 107 °C
10,Nc1cc(C(=O)O)ccc1NCCCN1CCOCC1,216 to 218 °C
11,CNc1n[nH]c(N)c1S(C)(=O)=O,171 to 173 °C
12,O=C(O)C1CCN(C(=O)CCOc2ccccc2)CC1,127 to 129 °C
13,Cc1cc(=O)[nH]c(-c2cccc(O)c2)n1,213 to 215 °C
14,O=C1CCCc2cc(C(=O)O)ccc2N1,267 to 269 °C
15,Cc1ccc(Cn2nc(C)c(C=O)c2C)cc1,65 to 67 °C
16,COC(=O)COc1c(C)cc(C(=O)O)cc1C,173 to 175 °C
17,Nc1ccc(C(=O)O)c(I)c1,160 to 162 °C
18,NC(=O)c1cc(S(=O)(=O)NCC(=O)O)c[nH]1,279 to 281 °C
19,CS(=O)(=O)Nc1cc(Br)ccc1F,143 to 145 °C
20,CC(C)=C(F)C(=O)O,64 to 66 °C
21,Nc1ccc(OCC(F)(F)F)c(C(=O)O)c1,190 to 192 °C
22,Cn1ccnc1SCc1ccccc1[N+](=O)[O-],86 to 88 °C
23,COC(=O)c1cc(Br)c(N)s1,88 to 90 °C
24,O=C(O)C1C2CC3CC(C2)CC1C3 (configuration not stated),121 to 123 °C
